Laboratory results reported in US5561111A, “Stable glutamine derivatives for oral and intravenous rehydration and nutrition therapy” (The University of Virginia Patent Foundation, priority 1994, dated 1996).
Peptide text beside a SMILES is read from it.

Test system: rabbit ileal mucosa
Experiment: Intestinal sodium cotransport in rabbit ileal mucosa mounted in Ussing chambers
Description: To study intestinal sodium cotransport using the compounds of the present invention, Ala-Glu and Ala-Gln were tested according to the method of Lima et al, Brazilian J. Med Biol. Res., 25:637-640 (1992) for measuring intestinal sodium cotransport in rabbit ileal mucosa mounted in Ussing chambers. […] As shown the dose response increases dramatically in a non-linear fashion. […] The pD2 value is related to the ED50 in accordance with the following formula: -log ED50 =pD2.

SMILES: C[C@H](N)C(=O)N[C@@H](CCC(N)=O)C(=O)O [Ala-Gln, alanyl-glutamine] (H-Ala-Gln-OH)
- maximum increase (Emax) in Isc: 150 μA/cm^2
